The source of these data is US20210386791A1, “METHODS OF CELLULAR REPROGRAMMING” (TissueTech, Inc., priority 2018, published 2021).

Experiment [1] deals with human corneal fibroblasts (HCF). Nature of the experiment: P3 HCF on plastic with or without immobilized HA or HC-HA/PTX3, with or without TGFβ1: mRNA, ELISA, Western blot, immunostaining. It is filed as cell-based. As to the method: A total of 89 human corneas from individuals aged 18-76 years and maintained at 4° C. in Optisol (Chiron Vision, Irvine, Calif.) for less than 7 days after death were obtained from the Florida Lions Eye Bank (Miami, Fla.) and handled according to the declaration of Helsinki. HCF were isolated and cultured. Epithelial and endothelial cells were removed from corneas, the stroma was cut into cubes of approximately 1 mm^3, incubated in 2 mg/ml collagenase for 16 h at 37° C., and then placed in a culture medium consisting of Dulbecco's modified Eagle's medium (DMEM) supplemented with 10% fetal bovine serum containing […]. The culture medium was changed twice a week. The morphology of the cells was monitored by Nikon Eclipse TS 100 microscope (Melville, N.Y.). Cells cultured to passage 3 (P3) were used for all experiments.
Human corneal fibroblasts (P3) were seeded on plastics with or without immobilized HC-HA/PTX3 complex for 72 h in DMEM+10% FBS, then serum starved for 24 h and treated with or without TGFβ1 for 24 h before being harvested for mRNA quantitation or immunostaining. For determination of protein of TGFβ receptor or p75NTR, the cells were treated with or without TGF-β1 for 48 h before collection of protein samples because the protein expression lags behind mRNA expression. For TGF-β1 ELISA, the cells were treated with or without TGF-β1 for 24 h, and then cultured in the fresh medium for another 24 h. The supernatants were collected for TGFβ1 ELISA. For TGFβ2 and TGFβ3 ELISA, the cells were treated with or without TGFβ1 for 48 h. Certain HCF were seeded on glass in DMEM+10% FBS for 24 h, then in DMEM+ITS (insulin-transferrin-selenium) for 24 h, treated with/without PBS or hyaluronic acid (HA) or HC-HA/PTX3±TGFβ1 (10 ng/ml)±Marimastat (10 μM) or ±DAPT (10 μM) or ±both for 0, 5, 15, 30 and 45 minutes before being harvested for immunostaining of CD44-ICD, JNK1, Cyclin D1 and p75NTR and for 5 minutes before being harvested for Western blotting of cytoplasmic and nuclear CD44-ICD, active MT1-MMP, and active γ-secretase after compartmental separation of the cellular components.
Total RNAs were extracted using RNeasy Mini Kit and were reverse transcribed using High Capacity Reverse Transcription Kit (Applied Biosystems). cDNA obtained was amplified by real-time RT-PCR using specific primer-probe mixtures and DNA polymerase in 7000 Real-time PCR System (Thermo-Fisher Scientific, Carlsbad, Calif.). Real-time RT-PCR profile consisted of 10 minutes of initial activation at 95° C., followed by 40 cycles of 15 seconds denaturation at 95° C., and 1 min annealing and 1 min extension at 60° C. The genuine identity of each PCR product was confirmed by the size determination using 2% agarose gels followed by ethidium bromide staining together with PCR marker according to EC3 Imaging System (BioImaging System, Upland, Calif.).
The Quantikine Human ELISA Kits of TGFβs were used for determination of TGFβs following the manufacturer's instructions (R and D Systems, Minneapolis, Minn.).
HCF, induced human corneal endothelial cells (HCEC), and HCEC monolayer cultures were air-dried and fixed in 4% formaldehyde, pH 7.0, for 15 min at room temperature, rehydrated in PBS, incubated with 0.2% Triton X-100 for 15 min, and rinsed three times with PBS for 5 min each. After incubation with 2% BSA to block non-specific staining for 30 min, they were incubated with the desired first antibody (all at 1:50 dilution) for 16 h at 4° C. After three washes with PBS, they were incubated with corresponding Alexa-Fluor-conjugated secondary IgG (all 1:100 dilutions) for 60 min. The samples were then counterstained with Hoechst 33342 and analyzed with Zeiss LSM 700 confocal microscope (Thornhood, N.Y.). Corresponding mouse and rabbit sera were used as negative controls for primary monoclonal and polyclonal antibodies, respectively. […]

The test system is the same in experiment [2]. Nature of the experiment: Timing course analysis of SDF1/CXCR4 and BMP signaling in HCF. It is filed as cell-based. To be noted: time course.

On to hyaluronic acid [HA], for which, in experiment [1] (absence of TGFβ1), the “expression of NC markers (p75NTR, HNK1, Sox9, KLF4, Snail1, MSX1)” value is given as “only upregulated expression of HNK1”; the “keratocan mRNA and protein” value was “upregulated mRNA but not protein of keratocan”. Further, the “TGFβ1 mRNA and protein level” value in experiment [1] (after exogenous TGFβ1 (10 ng/ml)) is recorded as “upregulated”. Further, the “nuclear translocation of pSMAD2/3 and cytoplasmic expression of α-SMA” value in experiment [1] (exogenous TGFβ1) is “caused nuclear translocation of pSMAD2/3 and positive cytoplasmic expression of α-SMA”. In addition, the “cell shape / aggregation of P3 HCF” value in experiment [1] (immobilized substrate, DMEM+10% FBS, 24 h) is given as “spindle in shape”. The keratocan upregulation entry in experiment [1] (presence of TGF-β1) was “upregulation disappeared”. For the same substance, in experiment [1] (with TGFβ1), the “NC marker mRNA, p75NTR protein and p75NTR nuclear translocation” value is “further upregulated without p75NTR nuclear translocation”. In experiment [2], the “time of promoted CXCR4 mRNA expression” value is “not HA” and the “time to aggregation in HCF” value was “not HA”.
